The values below come from patent publication US5478841A, “Fluorinated quinolones, process for their preparation and pharmaceutical preparations containing same” (Bouchara S.A., priority 1992, dated 1995).

In brackets after ≈: the same amount, converted by molar mass. Some results are limits rather than exact numbers.

One data set deals with E. coli ATCC 25922. Briefly: MIC/MBC, microdilution in Mueller-Hinton broth, E. coli. The settings on record: Escherichia coli; for MIC: ATCC25922, 18 h at 37° C., about 10^6 bacteria/ml, read-out: MINIMAL INHIBITORY CONCENTRATION (MIC); for MBC: ATCC25922, read-out: MINIMAL BACTERICIDAL CONCENTRATION (MBC). It counts as cell-based. The method, then:
(§1) The products were tested vis-a-vis 7 reference strains
Escherichia coli ATCC 25922
(§2) The preparation of these mother solutions produced, varied according to the molecules as a function of solubility criteria.
(§3) The inoculation is carried out by adding to each cupule 10 μl of a dilution in physiological water of an 18 hour broth of heart/brain broth such that each cupule contains about 10^6 bacteria/ml.
(§4) The minimal inhibitory concentration is read as the first concentration of antibiotic giving no culture which is macroscopically visible after incubation for 18 hours at 37° C.
(Broth dilution looks for growth in wells or tubes with falling amounts of substance.)

Another data set relates to S. aureus ATCC 25923. Put plainly: MIC/MBC, microdilution in Mueller-Hinton broth, S. aureus ATCC 25923. It is filed as cell-based. To be noted: Staphylococcus aureus; for MIC: ATCC25923, 18 h at 37° C., about 10^6 bacteria/ml, read-out: MINIMAL INHIBITORY CONCENTRATION (MIC); for MBC: ATCC25923, read-out: MINIMAL BACTERICIDAL CONCENTRATION (MBC). The method, then: as §1
Straphylococcus aureus ATCC 25923
as §2, §3, §4

The next data set deals with P. aeruginosa ATCC 22853. Put plainly: MIC/MBC, microdilution in Mueller-Hinton broth, P. aeruginosa. It counts as cell-based. To be noted: Pseudomonas aeruginosa; for MIC: ATCC22853, 18 h, read-out: MINIMAL INHIBITORY CONCENTRATION (MIC); for MBC: ATCC22853, read-out: MINIMAL BACTERICIDAL CONCENTRATION (MBC). The method, then:
as §1
Pseudomonas aeruginosa ATCC 22853
as §2, §3, §4

A further data set has as its system S. faecalis. Briefly: MIC/MBC, microdilution in Mueller-Hinton broth, S. faecalis. It is filed as cell-based, Streptococcus faecalis. To be noted: Enterococcus faecalis, ATCC25922, read-out: MINIMAL BACTERICIDAL CONCENTRATION (MBC). How it is done: (§5) The products were tested vis-a-vis 7 reference strains […]
as §2, §3, §4

Another data set has as its system S. faecalis ATCC 25922. Described as above. It counts as cell-based, Streptococcus faecalis. To be noted: Enterococcus faecalis, ATCC25922, 18 h, read-out: MINIMAL INHIBITORY CONCENTRATION (MIC). How it is done: as §5, §2, §3, §4
Data set [1] concerns Acinetobacter Baumanii ATCC 17904. Put plainly: MIC/MBC, microdilution in Mueller-Hinton broth, Acinetobacter. It is filed as cell-based. To be noted: Acinetobacter baumannii. The method, then:
as §1
Acinetobacter calcoaceticus variety anitratum ATCC 17903
as §2, §3, §4

In a further data set the test system is S. aureus CB-951. Put plainly: MIC/MBC, microdilution in Mueller-Hinton broth, S. aureus CB-951. It counts as cell-based. The settings on record: Staphylococcus aureus, CB951, S. aureus CB-951, methicillino resistant, pefloxacino resistant. How it is done: as §1
Staphylococcus aureus CB 951
as §2, §3, §4

Another data set can be described thus: solubility in water. It counts as physicochemical. The settings on record: hydrochloride, pale yellow crystals.

`CC(C)n1cc(C(=O)O)c(=O)c2cc(F)c(N3CCC(CN)CC3)c(F)c21` [Compound 7, 6,8-difluoro-1-isopropyl-7-((4-aminomethyl)-1-piperidinyl)-quinolone-3-carboxylic acid]: the MIC in the data set with E. coli ATCC 25922 is 1.6 µg/mL (≈ 4.22 µM); in the data set with S. aureus ATCC 25923, 3.2 µg/mL (≈ 8.43 µM); in the data set with P. aeruginosa ATCC 22853 it was 25.6 µg/mL (≈ 67.5 µM); in the data set on S. faecalis ATCC 25922 it was 3.2 µg/mL (≈ 8.43 µM). Further, the MBC in the data set with E. coli ATCC 25922 is 1.6 µg/mL (≈ 4.22 µM); with S. aureus ATCC 25923 it was 6.4 µg/mL (≈ 16.9 µM); in the data set with P. aeruginosa ATCC 22853 it was over 51.2 µg/mL; with S. faecalis, 25.6 µg/mL (≈ 67.5 µM).
In the case of `NCC1CCN(c2cc3c(cc2F)c(=O)c(C(=O)O)cn3C2CC2)CC1` [Compound 5, 6-fluoro-1-cyclopropyl-7-((4-aminomethyl)-1-piperidinyl)-quinolone-3-carboxylic acid], in the data set on E. coli ATCC 25922, the MIC was 0.25 µg/mL (≈ 0.696 µM) and the MBC turned out to be 0.5 µg/mL (≈ 1.39 µM). Moreover, in the data set with S. aureus ATCC 25923, the MIC is 0.25 µg/mL (≈ 0.696 µM) and the MBC is 0.5 µg/mL (≈ 1.39 µM).
For `NCC1CCN(c2c(F)cc3c(=O)c(C(=O)O)cn(C4CC4)c3c2F)CC1` [Compound 1, 6,8-difluoro-7-[(4-aminomethyl)-1-piperdinyl]-1-(1-cyclopropyl)-4-oxo-1,4-dihydroquinolinyl-3-carboxylic acid], the MIC in the data set on E. coli ATCC 25922 was 2 µg/mL (≈ 5.3 µM); in data set [1] (ATCC17904, 18 h, read-out: MINIMAL INHIBITORY CONCENTRATION (MIC)) it was 0.03 µg/mL (≈ 0.0795 µM); in the data set with S. aureus ATCC 25923, 0.06 µg/mL (≈ 0.159 µM); in the data set on P. aeruginosa ATCC 22853 it was over 16 µg/mL; with S. aureus CB-951 (18 h at 37° C., about 10^6 bacteria/ml, read-out: MINIMAL INHIBITORY CONCENTRATION (MIC)) it was 0.25 µg/mL (≈ 0.662 µM); in the data set with S. faecalis ATCC 25922, 1 µg/mL (≈ 2.65 µM). Moreover, the MBC is 4 µg/mL (≈ 10.6 µM) in the data set on E. coli ATCC 25922; 0.03 µg/mL (≈ 0.0795 µM) in data set [1] (ATCC17904, read-out: MINIMAL BACTERICIDAL CONCENTRATION (MBC)); 0.06 µg/mL (≈ 0.159 µM) in the data set on S. aureus ATCC 25923; over 16 µg/mL in the data set on P. aeruginosa ATCC 22853; 0.25 µg/mL (≈ 0.662 µM) in the data set with S. aureus CB-951 (read-out: MINIMAL BACTERICIDAL CONCENTRATION (MBC)); 1 µg/mL (≈ 2.65 µM) in the data set on S. faecalis. Besides, the solubility in water result in the data set “solubility in water” was “moderately soluble in water”.
